These results are taken from US20230338397A1, “COMPOSITION COMPRISING CANNABINOIDS, AND/OR TERPENS, AND METHODS OF USING SAME” (priority 2020, published 2023).

In test [1] the test system is dispersed nasal polyp cells. Put plainly: Cell death of dispersed NP cells (PI, flow cytometry), 2 h. The format is cell-based, human. As to conditions: 10 μM, 2 h incubation, FIG. 12. The method, then: DNPCs are prepared from nasal polyps by means of enzymatic digestion. Nasal Polyps are incubated for 2 hours at 37° C. in RPMI 1640 (1 g of tissue per 4 mL) containing 2.0 mg/mL protease, 1.5 mg/mL collagenase, 0.75 mg/mL hyaluronidase, and 0.05 mg/mL DNase. The cell suspension is then filtered through a […] cell strainer to remove any undigested tissue and washed 2 times with washing medium (RPMI 1640 supplemented with 2% FCS, 2 mmol/L glutamine, 100 U/mL penicillin, and […] streptomycin). The cell pellet is resuspended in erythrocyte lysis buffer and washed with washing medium. After washing, DNPCs are suspended in culture medium (RPMI 1640 supplemented with 10% Foetal Calf Serum (FCS), 2 mmol/L glutamine, 100 U/mL penicillin, and […] streptomycin).
The effect of the treatment is evaluated by cell death parameters, using […] (PI) and flow cytometry (FACS) analysis, and enzymatic-linked immunoassay (ELISA).
For orientation: In flow cytometry, cells or beads pass a laser one at a time.

For test [2], the system named is human nasal polyp (NP) whole tissues. Put plainly: NP organ culture: detachment of cells/tissue pieces from nasal polyp (micrographs).
For test [3], the system named is human NP tissue. Nature of the test: NP organ culture: tissue weight reduction ex-vivo. The settings on record: for NP tissue weight reduction: 150 μM.
In test [4] the test system is GM-CSF. Put plainly: GM-CSF level in SEB-stimulated dispersed nasal polyp cells. The format is cell-based, human. The settings on record: CBD 2.5 μM, 5 μM, 10 μM, 30 min before SEB, FIG. 8.
Test [5] concerns human Jurkat T cell line. Nature of the test: T cell death in Jurkat cells (PI, flow cytometry). The settings on record: 2 h, FIG. 11; for T cell death compared to vehicle: CBD 1-20 μM, CBG 5-20 μM.
Test [6] concerns enzymatically-dissociated human NP. Nature of the test: NP organ culture: cell death by PI and flow cytometry after enzymatic digestion. As to conditions: for cell death of incubated nasal polyp cells: 72 h, FIG. 10.

Structures are written as SMILES. Entries after “also recorded” stand apart in the source; their conditions may differ.

On to `C=C(C)[C@@H]1CCC(C)=C[C@H]1c1c(O)cc(CCCCC)cc1O` [CBD, cannabidiol], for which, in test [1], the “cell death % of dispersed NP cells” value is listed as “significant increase in cell death %; also recorded: significant increase in cell death”. For the same compound, in test [2] (CBD 150 μM, 3 h incubation, FIG. 1), the “detachment of cells/tissue pieces from the main NP” value is “starting to detach from the main NP whole tissue; also recorded: starting to detach and disaggregate from the main polyp”. Also, the “cells/tissue pieces breaking off the main polyp” value in test [2] (CBD 150 μM, 72 h incubation, FIG. 3) is recorded as “cells/tissue pieces are breaking off the main polyp into the medium”. In test [2] (CBD 600 μM, 24 h incubation, FIG. 2), the “detachment of cells/tissues from the main NP” value is “significant detachment of cells/tissues; also recorded: significant detachment of nasal polyp cells/pieces”. In addition, the “NP tissue weight reduction” value in test [3] (3 h incubation, FIG. 4) was “significant tissue weight reduction; also recorded: significant nasal polyp weight reduction”; in test [3] (CBD 15 μM, 1.5 mM, 24 h incubation, FIG. 5) it was “significant human NP tissue weight reduction; also recorded: significant dose-dependent nasal polyp weight reduction”. Moreover, the GM-CSF level entry in test [4] is on record as “significantly decrease; also recorded: significantly reduces or inhibits”. The “T cell death compared to vehicle” value in test [5] is on record as “significant cell death compared to control”. The “percent of dead cells” value in test [6] (CBD 15 μM, 150 μM, 1.5 mM, 24 h, PI-positive, FIG. 7) is reported as “significantly increased the percent of dead cells”. In addition, the “cell death of incubated nasal polyp cells” value in test [6] (CBD alone 150 μM) is recorded as “substantial cell death”.
In the case of `C=C(C)[C@@H]1CCC(C)=C[C@H]1c1c(O)cc(CCC)cc1O` [CBDV, cannabidivarin], in test [5] (CBDV 20 μM), the T cell death entry is listed as “induce cell death”.
On to `CCCCCc1cc(O)c(C/C=C(\C)CCC=C(C)C)c(O)c1` [CBG, cannabigerol], for which, in test [1], the “cell death % of dispersed NP cells” value is on record as “significant increase in cell death %; also recorded: significant increase in cell death”. Moreover, the “size of nasal polyps” value in test [3] (CBG 150 μM, 24 h, FIG. 13A) is given as “size of nasal polyps is reduced”. Besides, the “T cell death compared to vehicle” value in test [5] was “significant cell death compared to control”. Also, the “cell death of NP cells” value in test [6] (CBG 150 μM, FIG. 13C-13D) is “substantial cell death”.
As to `CCCCCc1cc(O)c2c(c1)OC(C)(C)[C@@H]1CCC(C)=C[C@@H]21` [THC, tetrahydrocannabinol], in test [6] (THC 10 μM and 100 μM, 24 h, FIG. 9), the “viability of nasal polyp cells (cell death)” value is “comparable effect as CBD at 15 μM and 150 μM, respectively”. In test [6] (THC 100 μM, FIG. 9), the “% cell death” value is recorded as “comparable effect to CBD at a concentration of 150 μM”. Further, in test [6] (THC alone 10 μM), the “cell death of incubated nasal polyp cells” value is given as “negligible”.
